Measurements reported in patent publication US20230382900A1, “INHIBITORS OF BTK” (Newave Pharmaceutical Inc., priority 2020, published 2023).
pIC50: −log10 of the molar value. Like-named read-outs stand apart in the source and are kept apart here.

What was measured:
[1] = dogs, even at higher doses; cited from earlier work
[2] = mice, even at higher doses; cited from earlier work
[3] = formulations containing GDC-0853; cited from earlier work
[4] = rats, treatment for longer than 7 days; cited from earlier work
human recombinant WT BTK = human recombinant WT BTK (Homo sapiens, UniProt Q06187); assay: Caliper-based biochemical enzymatic assay (IC50) against WT BTK; conditions: WT BTK 0.5 nM, ATP 16 μM, peptide substrate 1 μM, room temperature 3 h
Description: The reaction was then terminated with EDTA, final concentration 20 mM and the phosphorylated reaction product was quantified on a Caliper Desktop Profiler (Caliper LabChip 3000). Percent inhibition was calculated for each compound dilution and the concentration that produced 50% inhibition was calculated.

human recombinant WT BTK, sequence (Q06187 whole entry): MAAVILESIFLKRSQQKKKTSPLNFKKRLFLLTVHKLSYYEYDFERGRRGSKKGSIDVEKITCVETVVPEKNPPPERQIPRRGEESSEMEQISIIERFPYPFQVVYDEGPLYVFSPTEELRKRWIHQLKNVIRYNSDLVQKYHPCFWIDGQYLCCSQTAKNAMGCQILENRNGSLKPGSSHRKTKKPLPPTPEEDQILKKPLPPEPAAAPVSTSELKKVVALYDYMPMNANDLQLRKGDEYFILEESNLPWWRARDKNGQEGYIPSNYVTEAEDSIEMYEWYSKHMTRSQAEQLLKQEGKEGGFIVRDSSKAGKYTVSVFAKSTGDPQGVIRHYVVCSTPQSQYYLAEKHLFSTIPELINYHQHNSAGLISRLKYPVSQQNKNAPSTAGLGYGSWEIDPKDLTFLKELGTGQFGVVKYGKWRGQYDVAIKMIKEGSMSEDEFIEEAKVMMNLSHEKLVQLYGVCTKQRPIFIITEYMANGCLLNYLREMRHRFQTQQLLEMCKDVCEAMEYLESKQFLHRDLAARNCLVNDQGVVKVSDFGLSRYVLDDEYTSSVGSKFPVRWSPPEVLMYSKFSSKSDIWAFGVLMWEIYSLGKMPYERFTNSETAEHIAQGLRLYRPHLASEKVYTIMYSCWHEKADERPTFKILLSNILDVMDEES

pIC50 (human recombinant WT BTK)	SMILES	pancreatic toxicity [1]	pancreatic toxicity [2]	tolerability in Phase I clinical trials [3]	pancreatic toxicity [4]
–	C[C@H]1CN(C2COC2)CCN1c1ccc(Nc2cc(-c3ccnc(N4CCn5c(cc6c5CC(C)(C)C6)C4=O)c3CO)cn(C)c2=O)nc1 [GDC-0853]	does not occur	does not occur	well-tolerated	leads to pancreatic toxicity
9.19	C=CC(=O)Nc1cc(Nc2nc(-c3ccnc(NC(=O)c4ccc(C(C)(C)C)cc4)c3CO)cn(C)c2=O)ccc1N1CCN(C2CCOCC2)C[C@@H]1C [Example 1, 4-tert-butyl-N-[3-(hydroxymethyl)-4-[4-methyl-6-([4-[(2S)-2-methyl-4-(oxan-4-yl)piperazin-1-yl]-3-(prop-2-enamido)phenyl]amino)-5-oxopyrazin-2-yl]pyridin-2-yl]benzamide]	–	–	–	–
